Test: Dynamic PET imaging with [^18F]OXD-2314 in baboons
Type: in vivo
Conditions: for Cerebellum SUV / Cortex SUV / Striatum SUV / Whole Brain SUV: PET time-activity curve, Figure S18; for whole brain peak uptake: n = 1
Method: Dynamic PET imaging was performed in a rhesus macaque (macaca mulatta) monkey following the injection of [^18F]OXD-2314 at baseline (104.9 MBq, n = 1) and was repeated in a second [^18F]OXD-2314 study (115.8 MBq, n = 1) where a displacing dose of unlabeled OXD-2314 (0.5 mg/kg) was administered 10 min after [^18F]OXD-2314 injection to verify the absence of specific binding in NHP brain. Venous blood samples were drawn to characterize the metabolic fate of [^18F]OXD-2314 in the macaque. Dynamic [^18F]OXD-2314 PET imaging was also performed in a male (106.6 MBq, n = 1) and a female (115.8 MBq, n = 1) baboon (papio anubis), and venous blood samples were drawn in both baboons to characterize potential effects of sex on radiometabolism. Bilateral regions of interest were defined on 5–8 contiguous axial image planes for the lateral temporal cerebral cortex, cerebellum, striatum, and whole brain, which were used to sample dynamic [^18F]OXD-2314 PET images to determine the time-varying radioactivity concentration expressed in SUV units. [^18F]OXD-2314 readily entered macaque brain (whole brain peak ~2.2 SUV at ~2 min) and distributed uniformly throughout cortical and subcortical grey matter regions (Fig. 5A). […] Radiometabolite analysis of macaque venous blood identified only one, polar radiometabolite, which increased from 37% at 10 min to 77% at 90 min post-injection and was not likely brain penetrant (Figs. S19, S20).
The rate of uptake and clearance of [^18F]OXD-2314 in the brains of a male and a female baboon were compared (Fig. 6A). Initial whole brain uptake was rapid in both baboons, with peak uptake achieved in ~2 min with an SUV of ~2.8 in the male baboon and an SUV of ~1.9 in the female baboon. […] It is not known whether the higher initial brain uptake of [^18F]OXD-2314 observed in a male baboon is due to sex differences, normal physiologic variability, or the additional variability introduced by the effects of anesthesia. No evidence of elevated uptake or retention in the baboon striatum following [^18F]OXD-2314 injection was observed (Fig. S16), a region where high levels of PSP and CBD pathology are expected. Therefore, the normal brain retention patterns of [^18F]OXD-2314 are unlikely to confound the detection of specific signal from PSP and CBD pathology in human subjects.
NHP imaging studies in a male (13 kg) macaca mulata monkey and male (25.7 kg) and female (14.2 kg) papio anubis baboons were carried out in accordance with the guidelines set forth by the Institutional Animal Care and Use Committee at the University of Pittsburgh. Additional details regarding the maintenance of an active environmental enrichment program for the housed NHPs are described in Supplemental Information. Dynamic [^18F]OXD-2314 PET imaging of the brains of the isoflurane anesthetized NHPs was performed using a Siemens Biograph mCT Flow 64-4 R PET/CT scanner ([…], maximum intrinsic spatial resolution of 4.3 mm FWHM[53]. Following a low-dose CT scan for attenuation correction of PET emission data, [^18F]OXD-2314 was injected intravenously and emission data were acquired in list-mode for a period of 90 min. Emission data were binned into a dynamic series of 32 frames (20 sec-10 min) and reconstructed using filtered back projection with Fourier rebinning (FORE + FBP) with standard corrections applied that included attenuation, scatter, electronics dead-time, and physical decay.

CO[C@H]1CCCN(c2ccc(-c3cc4cc(O)ccc4[nH]3)c([18F])n2)C1 [[^18F]OXD-2314]
Cerebellum SUV (Time 2.75 min): 3.523 SUV
Cortex SUV (Time 2.75 min): 3.036 SUV
Striatum SUV (Time 2.75 min): 3.616 SUV
Whole Brain SUV (Time 2.75 min): 2.828 SUV
Cerebellum SUV (Time 3.25 min): 3.2566 SUV
Cortex SUV (Time 3.25 min): 2.891 SUV
Striatum SUV (Time 3.25 min): 3.337 SUV
Whole Brain SUV (Time 3.25 min): 2.7269 SUV
Cerebellum SUV (Time 3.75 min): 3.5333 SUV
Cortex SUV (Time 3.75 min): 2.848 SUV
Striatum SUV (Time 3.75 min): 3.315 SUV
Whole Brain SUV (Time 3.75 min): 2.707 SUV
Cerebellum SUV (Time 4.5 min): 3.317 SUV
Cortex SUV (Time 4.5 min): 2.817 SUV
Striatum SUV (Time 4.5 min): 3.072 SUV
Whole Brain SUV (Time 4.5 min): 2.623 SUV
Cerebellum SUV (Time 5.5 min): 2.973 SUV
Cortex SUV (Time 5.5 min): 2.612 SUV
Striatum SUV (Time 5.5 min): 3.02 SUV
Whole Brain SUV (Time 5.5 min): 2.516 SUV
Cerebellum SUV (Time 6.5 min): 2.884 SUV
Cortex SUV (Time 6.5 min): 2.534 SUV
Striatum SUV (Time 6.5 min): 2.784 SUV
Whole Brain SUV (Time 6.5 min): 2.429 SUV
Cerebellum SUV (Time 8 min): 2.424 SUV
Cortex SUV (Time 8 min): 2.368 SUV
Striatum SUV (Time 8 min): 2.423 SUV
Whole Brain SUV (Time 8 min): 2.257 SUV
Cerebellum SUV (Time 10 min): 2.417 SUV
Cortex SUV (Time 10 min): 2.197 SUV
Striatum SUV (Time 10 min): 2.581 SUV
Whole Brain SUV (Time 10 min): 2.094 SUV
Cerebellum SUV (Time 12 min): 2.068 SUV
Cortex SUV (Time 12 min): 2.057 SUV
Striatum SUV (Time 12 min): 2.198 SUV
Whole Brain SUV (Time 12 min): 1.998 SUV
Cerebellum SUV (Time 14 min): 2.062 SUV
Cortex SUV (Time 14 min): 1.889 SUV
Striatum SUV (Time 14 min): 1.943 SUV
Whole Brain SUV (Time 14 min): 1.8928 SUV
Cerebellum SUV (Time 17.5 min): 1.827 SUV
Cortex SUV (Time 17.5 min): 1.768 SUV
Striatum SUV (Time 17.5 min): 1.893 SUV
Whole Brain SUV (Time 17.5 min): 1.748 SUV
Cerebellum SUV (Time 22.5 min): 1.519 SUV
Cortex SUV (Time 22.5 min): 1.5637 SUV
Striatum SUV (Time 22.5 min): 1.618 SUV
Whole Brain SUV (Time 22.5 min): 1.572 SUV
Cerebellum SUV (Time 27.5 min): 1.345 SUV
Cortex SUV (Time 27.5 min): 1.403 SUV
Striatum SUV (Time 27.5 min): 1.574 SUV
Whole Brain SUV (Time 27.5 min): 1.421 SUV
Cerebellum SUV (Time 32.5 min): 1.261 SUV
Cortex SUV (Time 32.5 min): 1.245 SUV
Striatum SUV (Time 32.5 min): 1.235 SUV
Whole Brain SUV (Time 32.5 min): 1.295 SUV
Cerebellum SUV (Time 37.5 min): 1.135 SUV
Cortex SUV (Time 37.5 min): 1.17 SUV
Striatum SUV (Time 37.5 min): 1.248 SUV
Whole Brain SUV (Time 37.5 min): 1.205 SUV
Cerebellum SUV (Time 42.5 min): 1.059 SUV
Cortex SUV (Time 42.5 min): 1.067 SUV
Striatum SUV (Time 42.5 min): 1.112 SUV
Whole Brain SUV (Time 42.5 min): 1.107 SUV
Cerebellum SUV (Time 47.5 min): 1.003 SUV
Cortex SUV (Time 47.5 min): 0.9766 SUV
Striatum SUV (Time 47.5 min): 0.9755 SUV
Whole Brain SUV (Time 47.5 min): 1.028 SUV
Cerebellum SUV (Time 52.5 min): 0.8116 SUV
Cortex SUV (Time 52.5 min): 0.9384 SUV
Striatum SUV (Time 52.5 min): 0.9527 SUV
Whole Brain SUV (Time 52.5 min): 0.9734 SUV
Cerebellum SUV (Time 57.5 min): 0.7605 SUV
Cortex SUV (Time 57.5 min): 0.8664 SUV
Striatum SUV (Time 57.5 min): 0.8933 SUV
Whole Brain SUV (Time 57.5 min): 0.9139 SUV
Cerebellum SUV (Time 62.5 min): 0.7211 SUV
Cortex SUV (Time 62.5 min): 0.8233 SUV
Striatum SUV (Time 62.5 min): 0.8081 SUV
Whole Brain SUV (Time 62.5 min): 0.8807 SUV
Cerebellum SUV (Time 67.5 min): 0.724 SUV
Cortex SUV (Time 67.5 min): 0.803 SUV
Striatum SUV (Time 67.5 min): 0.7461 SUV
Whole Brain SUV (Time 67.5 min): 0.8223 SUV
Cerebellum SUV (Time 72.5 min): 0.6837 SUV
Cortex SUV (Time 72.5 min): 0.7452 SUV
Striatum SUV (Time 72.5 min): 0.6547 SUV
Whole Brain SUV (Time 72.5 min): 0.7875 SUV
Cerebellum SUV (Time 77.5 min): 0.6351 SUV
Cortex SUV (Time 77.5 min): 0.7071 SUV
Striatum SUV (Time 77.5 min): 0.5968 SUV
Whole Brain SUV (Time 77.5 min): 0.7547 SUV
Cerebellum SUV (Time 82.5 min): 0.6873 SUV
Cortex SUV (Time 82.5 min): 0.6833 SUV
Striatum SUV (Time 82.5 min): 0.7378 SUV
Whole Brain SUV (Time 82.5 min): 0.7187 SUV
Cerebellum SUV (Time 87.5 min): 0.5841 SUV
Cortex SUV (Time 87.5 min): 0.6805 SUV
Striatum SUV (Time 87.5 min): 0.6765 SUV
Whole Brain SUV (Time 87.5 min): 0.6934 SUV
time to peak whole brain uptake (both baboons): ~ 2 min
2:90 min SUV ratio (female baboon): ~ 3.6
whole brain peak uptake (female baboon): ~ 1.9 SUV
2:90 min SUV ratio (male baboon): ~ 3.7
whole brain peak uptake (male baboon): ~ 2.8 SUV

Source: publication PMC11178805, “Ligand-based design of [^18F]OXD-2314 for PET imaging in non-Alzheimer’s disease tauopathies” (Nature Communications, 2024)
